Data taken from patent publication US20190374509A1, “Methods of Using Metamizole for Treatment of Pyrexia in Equines” (Kindred Biosciences, Inc., priority 2018, published 2019).

Tested on: horses
Assay: Margin of safety study, IV three times daily for 9 days: clinical pathology (serum chemistry, hematology, urinalysis), body weight, physical examination
Assay type: in vivo
Procedure: A study was conducted to evaluate the margin of safety of metamizole when administered intravenously to horses for 9 days at doses of 0 mg/kg (0×), 30 mg/kg (1×), 60 mg/kg (2×), and 90 mg/kg (3×) of body weight three times daily (TID), every 8 hours±30 min.
This was a prospective, blinded, randomized, placebo-controlled, parallel-group laboratory study in research horses. Thirty-two horses were enrolled in the study (Table 1).
Treatment phase involved administration of the investigational drug or placebo. The investigational drug was a sterile injectable formulation of dipyrone (Zimeta™, Corden Pharma, Caponago, Italy) (500 mg/mL) in 100 mL glass bottles. The placebo was sterile injectable saline (Nova-Tech Inc, Grand Island, NE) (0.9% sodium chloride) in 500 mL plastic bottles labeled for veterinary use. Dipyrone treatment groups were 30 mg/kg (1×), 60 mg/kg (2×), and 90 mg/kg (3×). Placebo treatment group was saline administered at a volume to match the 3× dipyrone group (0×). The dose was calculated based on body weight and administered three times daily for nine consecutive days. Due to the large volume of injection at the higher dose groups, treatment was administered via indwelling intravenous (IV) catheters. Intravenous catheters were placed using standard techniques. Horses were sedated with xylazine (AnaSed® LA, VetOne, MWI, Boise, Id.) and the skin was desensitized with subcutaneous injection of lidocaine (VetOne, MWI, Boise, Id.). Intravenous catheters were replaced at the discretion of the study director and were maintained with heparinized saline flush prior to and following dose administration.
Randomization occurred on Study Day −1. […] .
All statistical analyses were performed using SAS, version 9.4 (SAS Institute, Cary, N.C.). The individual horse was the experimental unit in the statistical analysis. For statistical modeling, all main effects, interaction terms, and pairwise comparisons of the active groups (dipyrone) with the placebo group were assessed at the two-sided 0.10 significance level (unadjusted) with the exception of the three-way interaction, which was assessed at the two-sided 0.05 significance level (unadjusted).
For continuous endpoints with repeated post-treatment measurements (serum chemistry, coagulation, hematology, urinalysis, body weight, body temperature, heart rate and respiratory rate), repeated measurement analysis of covariance (SAS MIXED procedure RMANCOVA) was used to evaluate a model including treatment, time, sex, treatment by sex interaction, treatment by time interaction, and treatment by time by sex three-way interaction as fixed effects. In addition, baseline values were included as a covariate and remained in the model regardless of its significance. Baseline values were defined as the values prior to and nearest to the first dosing.

[1] = 1X, 30 mg/kg IV every 8 hours, Day 4
[2] = 1X, 30 mg/kg IV every 8 hours, Day 8
[3] = 1X, 30 mg/kg IV every 8 hours, Mares
[4] = 2X, 60 mg/kg IV every 8 hours, Day 4
[5] = 2X, 60 mg/kg IV every 8 hours, Day 8
[6] = 2X, 60 mg/kg IV every 8 hours, Mares
[7] = 3X, 90 mg/kg IV every 8 hours, Day 4
[8] = 3X, 90 mg/kg IV every 8 hours, Day 8
[9] = 3X, 90 mg/kg IV every 8 hours, Mares

Question: What does the source list for Cc1c(N(C)CS(=O)(=O)O)c(=O)n(-c2ccccc2)n1C [dipyrone, [(2,3-dihydro-1,5-dimethyl-3-oxo-2-phenyl-1H-pyrazol-4-yl)methylamino] methanesulfonic acid]?
Answer: Absolute Basophil Count Day 4 Range [1]: 0.00-0.19 cells 10^3/μL; Cholesterol Day 4 Range [1]: 54 to 77 mg/dL; Cholesterol LS Means [1]: 65.352 mg/dL; Creatinine Day 4 Range [1]: 0.9 to 2.0 mg/dL; Mean Corpuscular Hemoglobin Concentration Day 4 Range [1]: 34.9 to 36.1 g/dL; Mean Corpuscular Volume Day 4 Range [1]: 40.8 to 48.7 fL; Mean Corpuscular Volume LS Means [1]: 46.512 fL; Percent Basophil Day 4 Range [1]: 0.0-2.3%; Total Bilirubin Day 4 Range [1]: 0.8 to 3.4 mg/dL; Total Bilirubin LS Means [1]: 2.301 mg/dL; Absolute Basophil Count Day 8 Range [2]: 0.00-0.52 cells 10^3/μL; Cholesterol Day 8 Range [2]: 64 to 87 mg/dL; Creatinine Day 8 Range [2]: 0.6 to 1.6 mg/dL; Creatinine LS Means [2]: 1.118 mg/dL; Mean Corpuscular Hemoglobin Concentration Day 8 Range [2]: 34.1 to 39.4 g/dL; Mean Corpuscular Hemoglobin Concentration LS Means [2]: 35.513 g/dL; Mean Corpuscular Volume Day 8 Range [2]: 40.8 to 49.3 fL; Mean Corpuscular Volume LS Means [2]: 47.000 fL; Percent Basophil Day 8 Range [2]: 0.0-2.6%; Total Bilirubin Day 8 Range [2]: 1.7 to 4.1 mg/dL; Total Bilirubin LS Means [2]: 2.914 mg/dL; Percent Basophil LS Means (1X, 30 mg/kg IV every 8 hours, Geldings): 0.849%; Absolute Basophil Count LS Means [3]: 0.200 cells 10^3/μL; Percent Basophil LS Means [3]: 1.374%; Absolute Basophil Count Day 4 Range [4]: 0.00-0.12 cells 10^3/μL; Cholesterol Day 4 Range [4]: 43 to 74 mg/dL; Cholesterol LS Means [4]: 56.772 mg/dL; Creatinine Day 4 Range [4]: 1.1 to 2.0 mg/dL; Mean Corpuscular Hemoglobin Concentration Day 4 Range [4]: 34.2 to 36.1 g/dL; Mean Corpuscular Volume Day 4 Range [4]: 41.7 to 49.4 fL; Mean Corpuscular Volume LS Means [4]: 46.284 fL; Percent Basophil Day 4 Range [4]: 0.0-1.3%; Total Bilirubin Day 4 Range [4]: 1.6 to 4.0 mg/dL; Total Bilirubin LS Means [4]: 2.745 mg/dL; Absolute Basophil Count Day 8 Range [5]: 0.00-0.21 cells 10^3/μL; Cholesterol Day 8 Range [5]: 52 to 87 mg/dL; Creatinine Day 8 Range [5]: 0.6 to 1.4 mg/dL; Creatinine LS Means [5]: 0.958 mg/dL; Mean Corpuscular Hemoglobin Concentration Day 8 Range [5]: 32.9 to 35.5 g/dL; Mean Corpuscular Hemoglobin Concentration LS Means [5]: 34.080 g/dL; Mean Corpuscular Volume Day 8 Range [5]: 43.2 to 50.8 fL; Mean Corpuscular Volume LS Means [5]: 47.134 fL; Percent Basophil Day 8 Range [5]: 0.0-2.7%; Total Bilirubin Day 8 Range [5]: 1.6 to 6.1 mg/dL; Total Bilirubin LS Means [5]: 4.495 mg/dL; Percent Basophil LS Means (2X, 60 mg/kg IV every 8 hours, Geldings): 0.949%; Absolute Basophil Count LS Means [6]: 0.059 cells 10^3/μL; Percent Basophil LS Means [6]: 0.520%; Absolute Basophil Count Day 4 Range [7]: 0.00-0.39 cells 10^3/μL; Cholesterol Day 4 Range [7]: 43 to 73 mg/dL; Cholesterol LS Means [7]: 54.144 mg/dL; Creatinine Day 4 Range [7]: 1.1 to 2.1 mg/dL; Mean Corpuscular Hemoglobin Concentration Day 4 Range [7]: 34.3 to 36.0 g/dL; Mean Corpuscular Volume Day 4 Range [7]: 43.0 to 50.4 fL; Mean Corpuscular Volume LS Means [7]: 46.560 fL; Percent Basophil Day 4 Range [7]: 0.0-4.0%; Total Bilirubin Day 4 Range [7]: 1.7 to 5.5 mg/dL; Total Bilirubin LS Means [7]: 3.074 mg/dL; Absolute Basophil Count Day 8 Range [8]: 0.00-0.41 cells 10^3/μL; Cholesterol Day 8 Range [8]: 55 to 96 mg/dL; Creatinine Day 8 Range [8]: 0.7 to 1.6 mg/dL; Creatinine LS Means [8]: 1.144 mg/dL; Mean Corpuscular Hemoglobin Concentration Day 8 Range [8]: 33.1 to 34.5 g/dL; Mean Corpuscular Hemoglobin Concentration LS Means [8]: 33.899 g/dL; Mean Corpuscular Volume Day 8 Range [8]: 43.8 to 51.3 fL; Mean Corpuscular Volume LS Means [8]: 47.708 fL; Percent Basophil Day 8 Range [8]: 0.0-2.1%; Total Bilirubin Day 8 Range [8]: 2.8 to 6.2 mg/dL; Total Bilirubin LS Means [8]: 4.579 mg/dL; Percent Basophil LS Means (3X, 90 mg/kg IV every 8 hours, Geldings): 0.924%; Absolute Basophil Count LS Means [9]: 0.188 cells 10^3/μL; Percent Basophil LS Means [9]: 1.731%; Urinalysis, body weights, and physical examination parameters (30, 60, 90 mg/kg IV every 8 hours for 9 days vs placebo): No significant differences
